In PubChem BioAssay (NCI):
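48-hour exposure; five concentrations; linearly interpolated endpoints. TGI is the concentration that stops growth completely.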

What was measured:
Test in all cases: NCI-60 cell line screen, 48 h
HCT-116 colon = tested on: HCT-116 colon
SN12C renal = tested on: SN12C renal
HL-60(TB) leukemia = tested on: HL-60(TB) leukemia
RXF 393 renal = tested on: RXF 393 renal
CAKI-1 renal = tested on: CAKI-1 renal
MDA-MB-435 = tested on: MDA-MB-435
NCI-H23 lung = tested on: NCI-H23 lung
MDA-N = tested on: MDA-N
HOP-62 NSCLC = tested on: HOP-62 NSCLC
SK-MEL-2 melanoma = tested on: SK-MEL-2 melanoma
SK-MEL-28 melanoma = tested on: SK-MEL-28 melanoma
RPMI-8226 leukemia = tested on: RPMI-8226 leukemia
SK-OV-3 ovarian = tested on: SK-OV-3 ovarian
UACC-62 melanoma = tested on: UACC-62 melanoma
LOX IMVI melanoma = tested on: LOX IMVI melanoma
HS 578T breast = tested on: HS 578T breast
NCI/ADR-RES ovarian = tested on: NCI/ADR-RES ovarian
SR leukemia = tested on: SR leukemia
HOP-92 NSCLC = tested on: HOP-92 NSCLC
SF-295 CNS = tested on: SF-295 CNS
PC-3 prostate = tested on: PC-3 prostate
HCT-15 colon = tested on: HCT-15 colon
786-0 renal = tested on: 786-0 renal
DU-145 prostate = tested on: DU-145 prostate
UACC-257 melanoma = tested on: UACC-257 melanoma
TK-10 renal = tested on: TK-10 renal
EKVX NSCLC = tested on: EKVX NSCLC
OVCAR-8 ovarian = tested on: OVCAR-8 ovarian
MOLT-4 leukemia = tested on: MOLT-4 leukemia
A498 renal = tested on: A498 renal
OVCAR-5 ovarian = tested on: OVCAR-5 ovarian
SK-MEL-5 melanoma = tested on: SK-MEL-5 melanoma
OVCAR-3 ovarian = tested on: OVCAR-3 ovarian
MDA-MB-231 breast = tested on: MDA-MB-231 breast
NCI-H522 lung = tested on: NCI-H522 lung
SW-620 colon = tested on: SW-620 colon
ACHN renal = tested on: ACHN renal
BT-549 breast = tested on: BT-549 breast
COLO 205 colon = tested on: COLO 205 colon
NCI-H226 lung = tested on: NCI-H226 lung
OVCAR-4 ovarian = tested on: OVCAR-4 ovarian
SF-539 CNS = tested on: SF-539 CNS
M14 melanoma = tested on: M14 melanoma
KM12 colon = tested on: KM12 colon
SNB-19 CNS = tested on: SNB-19 CNS
UO-31 renal = tested on: UO-31 renal
MCF7 breast = tested on: MCF7 breast
MALME-3M melanoma = tested on: MALME-3M melanoma
A549 NSCLC = tested on: A549 NSCLC
HT29 colon = tested on: HT29 colon
SF-268 CNS = tested on: SF-268 CNS
T-47D breast = tested on: T-47D breast
IGROV1 ovarian = tested on: IGROV1 ovarian
U251 CNS = tested on: U251 CNS
K-562 leukemia = tested on: K-562 leukemia
NCI-H460 lung = tested on: NCI-H460 lung
HCC-2998 colon = tested on: HCC-2998 colon
CCRF-CEM leukemia = tested on: CCRF-CEM leukemia
SNB-75 CNS = tested on: SNB-75 CNS

Compound: CN1C(=O)C2(C)SC1(c1ccccc1)C1C(=O)N(c3ccccc3)C(=O)C12 (stereo unspecified)
- TGI (HCT-116 colon): > 100 µM
- TGI (SN12C renal): > 100 µM
- TGI (HL-60(TB) leukemia): > 100 µM
- TGI (RXF 393 renal): > 100 µM
- TGI (CAKI-1 renal): > 100 µM
- TGI (MDA-MB-435): > 100 µM
- TGI (NCI-H23 lung): > 100 µM
- TGI (MDA-N): > 100 µM
- TGI (HOP-62 NSCLC): > 100 µM
- TGI (SK-MEL-2 melanoma): > 100 µM
- TGI (SK-MEL-28 melanoma): > 100 µM
- TGI (RPMI-8226 leukemia): > 100 µM
- TGI (SK-OV-3 ovarian): > 100 µM
- TGI (UACC-62 melanoma): > 100 µM
- TGI (LOX IMVI melanoma): > 100 µM
- TGI (HS 578T breast): > 100 µM
- TGI (NCI/ADR-RES ovarian): > 100 µM
- TGI (SR leukemia): > 100 µM
- TGI (HOP-92 NSCLC): > 100 µM
- TGI (SF-295 CNS): > 100 µM
- TGI (PC-3 prostate): > 100 µM
- TGI (HCT-15 colon): > 100 µM
- TGI (786-0 renal): > 100 µM
- TGI (DU-145 prostate): > 100 µM
- TGI (UACC-257 melanoma): 93.3 µM
- TGI (TK-10 renal): > 100 µM
- TGI (EKVX NSCLC): > 100 µM
- TGI (OVCAR-8 ovarian): > 100 µM
- TGI (MOLT-4 leukemia): > 100 µM
- TGI (A498 renal): > 100 µM
- TGI (OVCAR-5 ovarian): > 100 µM
- TGI (SK-MEL-5 melanoma): > 100 µM
- TGI (OVCAR-3 ovarian): > 100 µM
- TGI (MDA-MB-231 breast): > 100 µM
- TGI (NCI-H522 lung): > 100 µM
- TGI (SW-620 colon): > 100 µM
- TGI (ACHN renal): > 100 µM
- TGI (BT-549 breast): > 100 µM
- TGI (COLO 205 colon): > 100 µM
- TGI (NCI-H226 lung): > 100 µM
- TGI (OVCAR-4 ovarian): > 100 µM
- TGI (SF-539 CNS): > 100 µM
- TGI (M14 melanoma): > 100 µM
- TGI (KM12 colon): > 100 µM
- TGI (SNB-19 CNS): > 100 µM
- TGI (UO-31 renal): > 100 µM
- TGI (MCF7 breast): > 100 µM
- TGI (MALME-3M melanoma): > 100 µM
- TGI (A549 NSCLC): > 100 µM
- TGI (HT29 colon): > 100 µM
- TGI (SF-268 CNS): > 100 µM
- TGI (T-47D breast): > 100 µM
- TGI (IGROV1 ovarian): > 100 µM
- TGI (U251 CNS): > 100 µM
- TGI (K-562 leukemia): > 100 µM

Compound: N#C/C(=C\c1ccc(F)cc1)c1nc(-c2cc3ccccc3oc2=O)cs1
- TGI (HCT-116 colon): > 100 µM
- TGI (SN12C renal): > 100 µM
- TGI (NCI-H460 lung): > 100 µM
- TGI (HCC-2998 colon): > 100 µM
- TGI (HL-60(TB) leukemia): > 100 µM
- TGI (RXF 393 renal): 64.2 µM
- TGI (CAKI-1 renal): > 100 µM
- TGI (MDA-MB-435): > 100 µM
- TGI (MDA-N): > 100 µM
- TGI (HOP-62 NSCLC): 25.7 µM
- TGI (SK-MEL-2 melanoma): > 100 µM
- TGI (SK-MEL-28 melanoma): > 100 µM
- TGI (RPMI-8226 leukemia): > 100 µM
- TGI (SK-OV-3 ovarian): 67.5 µM
- TGI (CCRF-CEM leukemia): > 100 µM
- TGI (UACC-62 melanoma): 38.7 µM
- TGI (LOX IMVI melanoma): > 100 µM
- TGI (SNB-75 CNS): 95.9 µM
- TGI (HS 578T breast): 56.7 µM
- TGI (NCI/ADR-RES ovarian): > 100 µM
- TGI (SR leukemia): > 100 µM
- TGI (HOP-92 NSCLC): 29.5 µM
- TGI (SF-295 CNS): 30.3 µM
- TGI (PC-3 prostate): > 100 µM
- TGI (HCT-15 colon): > 100 µM
- TGI (786-0 renal): 37.1 µM
- TGI (DU-145 prostate): > 100 µM
- TGI (UACC-257 melanoma): 65.9 µM
- TGI (TK-10 renal): 38.3 µM
- TGI (EKVX NSCLC): > 100 µM
- TGI (OVCAR-8 ovarian): 71.9 µM
- TGI (MOLT-4 leukemia): > 100 µM
- TGI (OVCAR-5 ovarian): > 100 µM
- TGI (SK-MEL-5 melanoma): 41.6 µM
- TGI (MDA-MB-231 breast): 33.7 µM
- TGI (NCI-H522 lung): 74.4 µM
- TGI (SW-620 colon): > 100 µM
- TGI (ACHN renal): > 100 µM
- TGI (BT-549 breast): 24.8 µM
- TGI (COLO 205 colon): > 100 µM
- TGI (NCI-H226 lung): > 100 µM
- TGI (OVCAR-4 ovarian): > 100 µM
- TGI (SF-539 CNS): 65.9 µM
- TGI (M14 melanoma): 50.7 µM
- TGI (KM12 colon): > 100 µM
- TGI (SNB-19 CNS): 41.1 µM
- TGI (UO-31 renal): 97.9 µM
- TGI (MCF7 breast): > 100 µM
- TGI (MALME-3M melanoma): 52.9 µM
- TGI (A549 NSCLC): > 100 µM
- TGI (HT29 colon): > 100 µM
- TGI (SF-268 CNS): 46.2 µM
- TGI (T-47D breast): > 100 µM
- TGI (IGROV1 ovarian): 85 µM
- TGI (U251 CNS): 61.4 µM
- TGI (K-562 leukemia): > 100 µM
